Literature values, collected in article PMC4807944 (International Journal of Nanomedicine, 2016).

Aqueous solubility: 1 to 2 µg/mL
SMILES: C=CC[C@@H]1/C=C(\C)C[C@H](C)C[C@H](OC)[C@H]2O[C@@](O)(C(=O)C(=O)N3CCCC[C@H]3C(=O)O[C@H](/C(C)=C/[C@@H]3CC[C@@H](O)[C@H](OC)C3)[C@H](C)[C@@H](O)CC1=O)[C@H](C)C[C@@H]2OC [FK506, Tacrolimus]
